Assay results taken from patent US10118935B2, “Melampomagnolide B dimers” (priority 2014, dated 2018).

Experiments:
[1] = system: SNB-19; conditions: SNB-19
[2] = system: CCRF-CEM; test: NCI 60 cell line five dose, Leukemia
[3] = system: K-562; test: NCI 60 cell line five dose, Leukemia
[4] = system: SR; test: NCI 60 cell line five dose, Leukemia
[5] = system: M14; test: NCI 60 cell line five dose, Melanoma
[6] = system: SK-MEL-28; test: NCI 60 cell line five dose, Melanoma; conditions: SK-MEL-28
[7] = system: UACC-62; test: NCI 60 cell line five dose, Melanoma
[8] = system: SF-268; test: NCI 60 cell line five dose, CNS Cancer
[9] = system: SF-295; test: NCI 60 cell line five dose, CNS Cancer
[10] = system: SF-539; test: NCI 60 cell line five dose, CNS Cancer
[11] = system: COLO 205; test: NCI 60 cell line five dose, Colon Cancer
[12] = system: HCC-2998; test: NCI 60 cell line five dose, Colon Cancer
[13] = system: HCT-15; test: NCI 60 cell line five dose, Colon Cancer
[14] = system: KM12; test: NCI 60 cell line five dose, Colon Cancer
[15] = system: 786-0; test: NCI 60 cell line five dose, Renal Cancer
[16] = system: A498; test: NCI 60 cell line five dose, Renal Cancer
[17] = system: CAKI-1; test: NCI 60 cell line five dose, Renal Cancer
[18] = system: RXF 393; test: NCI 60 cell line five dose, Renal Cancer
[19] = system: SN12C; test: NCI 60 cell line five dose, Renal Cancer
[20] = system: T-47D; test: NCI 60 cell line five dose, Breast Cancer
[21] = system: OVCAR-4; test: NCI 60 cell line five dose, Ovarian Cancer
[22] = system: PC-3; test: NCI 60 cell line five dose, Prostate Cancer
[23] = system: NCI-H226; test: NCI 60 cell line five dose, Non-Small Cell Lung Cancer
[24] = system: NCI-H460; test: as above

`C=C1C(=O)O[C@H]2[C@H]1CC/C(COC(=O)NCCCCCNC(=O)OC/C1=C/CC[C@@]3(C)O[C@H]3[C@H]3OC(=O)C(=C)[C@@H]3CC1)=C\CC[C@@]1(C)O[C@@H]21` [JVM 2-76, bis(((1aR,7aS,10aS,10bS,E)-1a-Methyl-8-methylene-9-oxo-1a,2,3,6,7,7a,8,9,10a,10b-decahydrooxireno[2′,3′:9,10]cyclodeca[1,2-b]furan-5-yl)methyl)pentane-1,5-diyldicarbamate] gave a GI50 [1] of 3.97 µM, a TGI [1] of 19.0 µM and a CC50 ([1]; read-out: LC50) of 92.5 µM. The GI50 [2] was 0.28 µM, the TGI [2] was 0.96 µM and the CC50 ([2]; read-out: LC50) was greater than 100 µM. The GI50 [3] was 0.56 µM, the TGI [3] was 16.1 µM and the CC50 ([3]; read-out: LC50) was greater than 100 µM. The GI50 [4] was 0.38 µM, the TGI [4] was 2.30 µM and the CC50 ([4]; read-out: LC50) was greater than 100 µM. For the same compound, the GI50 [5] was 1.71 µM, the TGI [5] was 3.74 µM and the CC50 ([5]; read-out: LC50) was 8.2 µM. The GI50 [6] was 1.58 µM, the TGI [6] was 4.13 µM and the CC50 ([6]; read-out: LC50) was 12.6 µM. The GI50 [7] was 1.41 µM, the TGI [7] was 3.16 µM and the CC50 ([7]; read-out: LC50) was 7.04 µM. It also gave a GI50 [8] of 3.08 µM, a TGI [8] of 12.0 µM and a CC50 ([8]; read-out: LC50) of 42.3 µM. For the same compound, the GI50 [9] was 11.1 µM, the TGI [9] was 26.9 µM and the CC50 ([9]; read-out: LC50) was 65.2 µM. For the same compound, the GI50 [10] was 1.92 µM, the TGI [10] was 4.56 µM and the CC50 ([10]; read-out: LC50) was 12.7 µM. For the same compound, the GI50 [11] was 0.52 µM, the TGI [11] was 2.33 µM and the CC50 ([11]; read-out: LC50) was 7.97 µM. The GI50 [12] was 6.71 µM, the TGI [12] was 20.7 µM and the CC50 ([12]; read-out: LC50) was 53.9 µM. The GI50 [13] was 6.18 µM, the TGI [13] was 20.7 µM and the CC50 ([13]; read-out: LC50) was 49.8 µM. The GI50 [14] was 6.53 µM, the TGI [14] was 21.0 µM and the CC50 ([14]; read-out: LC50) was 54.2 µM. For the same compound, the GI50 [15] was 1.57 µM, the TGI [15] was 3.17 µM and the CC50 ([15]; read-out: LC50) was 6.39 µM. The GI50 [16] was 6.24 µM, the TGI [16] was 19.4 µM and the CC50 ([16]; read-out: LC50) was 47.5 µM. It also gave a GI50 [17] of 16.1 µM, a TGI [17] of 33.1 µM and a CC50 ([17]; read-out: LC50) of 68.1 µM. For the same compound, the GI50 [18] was 0.85 µM, the TGI [18] was 2.43 µM and the CC50 ([18]; read-out: LC50) was 6.35 µM. For the same compound, the GI50 [19] was 2.49 µM, the TGI [19] was 10.7 µM and the CC50 ([19]; read-out: LC50) was 45.5 µM. It also gave a GI50 [20] of 1.6 µM, a TGI [20] of 5.73 µM and a CC50 ([20]; read-out: LC50) greater than 100 µM. It also gave a GI50 [21] of 2.72 µM, a TGI [21] of 15.2 µM and a CC50 ([21]; read-out: LC50) of 41.9 µM. The GI50 [22] was 3.79 µM, the TGI [22] was 15.6 µM and the CC50 ([22]; read-out: LC50) was 49.4 µM. For the same compound, the GI50 [23] was 2.56 µM, the TGI [23] was 8.18 µM and the CC50 ([23]; read-out: LC50) was 30.9 µM. For the same compound, the GI50 [24] was 4.34 µM, the TGI [24] was 16.2 µM and the CC50 ([24]; read-out: LC50) was 50.7 µM.
